Measurements as given in patent US7666842B2, “Elastin peptide analogs and uses thereof” (Connective Tissue Imagineering, LLC, priority 1998, dated 2010).
Ends that are not written are not given here.

How the values were obtained:
RFL-6 cells [1] = experiment: BrdUTP incorporation assay (mRNA, green fluorescence) in RFL-6 cells; assay type: cell-based; settings: sub-fractions of Fraction #3 (HPLC peaks at 215 nm); Blank (Background) 30
Method: A study was performed to determine whether different peptides had different activities in promoting skin health. Elastin protein was partially digested with thermolysin and the resulting peptides (i.e., SEQ ID 1-SEQ ID 41) were applied to an HPLC column. Five fractions containing clusters of peptides were collected from the column in the 5-50 minute range. The fractions were tested for activity using a bromodeoxyuridine Triphosphate (BrdUTP) incorporation assay in RFL-6 cells. The assay measures production of mRNA involved in protein synthesis.
Fraction #3 was sub-fractionated into 10 fractions corresponding to ten major peaks identified on the HPLC (at 215 nm). Table VI below illustrates the green fluorescence intensity as a measure of increased mRNA in RFL-6 cells in response to sub-fractionated portions of Fraction #3.

RFL-6 cells [2] = experiment: Tritiated thymidine incorporation in RFL-6 cells; settings: synthetic peptides, 24 hour incubation with RFL-6 cells
Method: Synthetic peptides were tested for their ability to stimulate incorporation of tritiated thymidine with a 24 hour incubation with RFL-6 cells.

rat skin = experiment: H&E histology of treated rat skin (Example 6); assay type: in vivo; settings: for Outer (keratin) layer and vascularity of the inner layer: treated skin sections; for Thickness of the dermal layer of skin: vs untreated controls (both shaven and unshaven)
Method: Rat skin was treated with 7-hydroxy DHEA and 7-hydroxy isoandrosterone. Skin cross sections were stained with hematoxylin and eosin (H&E) and examined histologically. […] The DHEA and derivatives induction of dermal thickening was reversible. A subset of experimental animals within each treatment group were left untreated for 30 days. Upon examination, treated skin sections were indistinguishable from the untreated. Concomitant toxicological studies found no significant toxicity when the compounds were used at 0.5% concentration in a suitable carrier applied twice daily (12 hour intervals) for 30 days.

[3] = In-vitro oxygen radical assay (luminol chemiluminescence, hydrogen peroxide); assay type: biochemical; settings: diluted luminol pre-incubated with compound; 100 μg/ml for DHEA
Method: The ability of a compound to scavenge free radicals may implicate it as an anti-oxidizing agent. To test whether DHEA or it derivatives had the ability to capture free radicals, an in-vitro oxygen radical assay was used. The assay was run in quadruplicate to perfect the concentrations of controls as well as test the diluents (phosphate buffered saline (PBS) and DMSO) in which the DHEA and its derivatives were dissolved. The positive controls used were homocysteine and ascorbic acid (Vitamin C).

[4] = system: skins of neonatal male Sprague-Dawley rats; experiment: Collagen content of neonatal rat skin (hydroxyproline); assay type: in vivo; settings: 0.5% in carrier twice daily, 30 days; five animals per group
Method: (§1) DHEA and the derivative compounds of DHEA (the 7 hydroxy derivative and 7 hydroxy-isoandrosterone) modified the elastin and collagen contents of neonatal rat skin when applied twice daily over a 30 day period at a concentration of 0.5% in a suitable carrier.
(§2) Collagen and elastin contents were measured on dry, defatted, hair-free skin samples. Collagen contents were assessed through hydroxyproline evaluations in hydrolyzed, 0.1N hot sodium hydroxide extracts. Elastin contents were measured by HPLC evaluation of the contents of thermolysin-produced peptides in digests of the hot sodium hydroxide residue. Controls were both shaven and unshaven, the shaven receiving only the carrier twice daily.
(§3) Elastin contents were increased by all the compounds (28% for DHEA, 30% for the 7 hydroxy derivative and the 7 hydroxy-isoandrosterone). In these studies, statistical analysis of variance was significant at an alpha level of 0.01. Similar to the histological observations, these chemistries were reversible. Collagen and elastin contents returned to near normal levels after cessation of treatment for 30 days.

[5] = system: skins of neonatal male Sprague-Dawley rats; experiment: Elastin content of neonatal rat skin (HPLC of thermolysin-produced peptides); assay type: in vivo; settings: 0.5% in carrier twice daily, 30 days; five animals per group
Method: as §1, §2, §3

[6] = system: skin of Sprague-Dawley male rats; experiment: Elastin content of rat skin after topical treatment (Example 2); assay type: in vivo; settings: topical DHEA, 5% concentration, similar time period; S CONTR 1.408, US CONTR 2.291
Method: Topical treatment of Sprague-Dawley male rats with a composition including peptides (i.e., SEQ IDs 1-41) at a concentration of about 1.3% (wt/wt) of the formulation over a one month period was performed. The rats were treated topically with a 1.3% concentration (wt/wt) of the preparation of the hydrophilic elastin peptide for a period of 30 days. […] Three animals each were used to generate the data for S CONTR, US CONT, and DHEA and eleven animals were used for HEP. Three skin samples from the treated areas of each animal were taken for study, and the three results from each animal were averaged. […] The elastin content of the skin was determined by a precise assay for rat elastin developed by Sandberg, et al. (Connective Tissue Research 25:139-48, 1990) the assay portion of which is hereby incorporated herein by reference thereto. […]
An alpha level less than 0.001 for the data as determined by analysis of variance is significant because there is less than one chance in a thousand that the findings occur by chance.

skin of treated rats = experiment: Fluorescent micrographs of skin cross-sections stained with anti-fibronectin antibodies (Example 3); assay type: in vivo, rat; settings: FIG. 2C DHEA topical, FIG. 2D peptide composition
From the text: FIGS. 2A-D are fluorescent micrographs of fixed skin cross-sections taken from rats treated as described in Example 3, and stained with fluorescein-conjugated anti-fibronectin antibodies. FIG. 2A is a representative sample from the unshaven control tissue; FIG. 2B is a representative sample from the shaven control sample; FIG. 2C is a representative sample of tissue which received DHEA topical treatment; and FIG. 2D is a representative sample of tissue which received treatment of a composition containing peptides, as described in Example 2. In each of the panels, the dermal layer of the skin is indicated by a bracket.
The capillary venules are shown in this figure as brightly stained oval bodies that lie beneath the dermal layer. The increase in the concentration of endothelial cells in the subdermal region indicates an increase in capillary density and therefore illustrates the potential for the peptides and formulations of the present invention to be used for the formation of blood vessels or capillary venules (neovascularization or angiogenesis).

human keratinocytes [7] = experiment: Viability of human keratinocytes (MTT); assay type: cell-based; settings: 10^−4 M to 10^−8 M
Method: Human keratinocytes were obtained from surgical items and were cultivated in a monolayer until preconfluence. The 7α-hydroxy-DHEA was administered to these cultures at various concentrations in ethanolic solution (10%), each concentration being tested eight times. Controls were carried out with ethanol alone (10%). After twenty-four hours, the viability of the keratinocytes was measured by testing with MTT (3-(4,5-dimethylthiazol-2-yl)-2,5 diphenyl tetrazolium bromide) where the mitochondrial dehydrogenase succinate converts the MTT into blue crystals of formazan soluble in DMSO (Mosmann, J. Immunol. Methods 65: 55-63, 1983). The cellular viability is calculated according to the formula: % viability=DO540 product×100/DO540 control.
A value greater than 100 indicates a product that encourages cellular viability.

human fibroblasts = experiment: Proliferation of human fibroblasts in culture (cell count); assay type: cell-based; settings: 72 hours of contact, control 190,667 ± 6,766
Method: Cultures of human fibroblasts (from a person) were seeded on twenty-four site plates at the rate of 50,000 cells per site in a standard culture medium (DMEM, gentamycine, amphotericine B, penicillin, L-glutamine, 10% SVF). The tests were carried out on four series of three sites. After twenty-four hours, the fibroblasts adhered to the support and three series were treated with 7α-hydroxy-DHEA at concentrations of 10^−6 M, 5×10^−6 M and 10^−7 M. The fourth series only contained the vector (ethanol). The media were renewed daily, and at ninety-six hours (seventy-two hours of test contact with the 7α-hydroxy-DHEA), the fibroblasts were counted on a Malassez cell in the presence of blue trypan.

human keratinocytes [8] = experiment: Anti-radical effect on UVA-irradiated human keratinocytes (lipoid peroxides, chemiluminescence); assay type: cell-based; settings: 10^−6 M
From the text: Keratinocytes from a healthy donor were cultivated to the subconfluent stage in a specific medium (KGM) for the proliferation of keratinocytes. The suspensions obtained were split up, in triplicate, into four series, of which three were irradiated for thirty minutes with a lamp emitting UVA so as to speed up the production of free radicals. Among the three irradiated series, one contained Vitamins C and E (0.7%) and was used as a protection reference; one contained 7α-hydroxy-DHEA at 10^−6 M and the last served as a control.
The free radicals produced generated lipoid peroxides which are measured by chemiluminescence (Belghmi et al. J Biolum. Chemilum. 2: 113-119, 1982). The effectiveness of the 7α-hydroxy-DHEA was calculated on the basis of non-irradiated controls and the protection reference.

## Valine-Tyrosine-Proline-Glycine-Glycine [SEQ ID 24]
RFL-6 cells [1]
  % Change of Green Fluorescence Intensity: 38%

## GAVVPQ--NH2 (GAVVPQ-NH2; listed as Homo sapiens) [SEQ ID 48]
RFL-6 cells [2]
  Tritiated thymidine incorporation, % CPM above the control: ~25 % CPM above the control

## Valine-Glycine-Valine-Hydroxy-proline-Glycine [SEQ ID 23]
RFL-6 cells [1]
  % Change of Green Fluorescence Intensity: 57%

## C[C@]12CC[C@H](O)C[C@@H]1CC(O)[C@@H]1[C@@H]2CC[C@]2(C)C(=O)CC[C@@H]12 (some centres unmarked) [7-hydroxy isoandrosterone]
Rat skin
  Outer (keratin) layer and vascularity of the inner layer: no change in the outer (keratin) layer nor increase of vascularity of the inner layer
  Thickness of the dermal layer of skin: thickened to nearly twice that of the untreated controls
[3]
  Reduction of luminol light emission: 15%
[4]
  Collagen increased by: 24%
[5]
  Elastin contents increased by: 30%

## C[C@]12CC[C@H](O)CC1=CC[C@@H]1[C@@H]2CC[C@]2(C)C(=O)CC[C@@H]12 [DHEA, 3β-hydroxy-5-androstene-17-one, reference compound]
[6]
  Elastin content of the skin (mean): 1.753 μg Elastin per mg Skin Fat Fre
Skin of treated rats
  Dermal layer of control skin (FIGS. 2A and B) compared to treated skin (FIGS. 2C and D): thin compared to the thickness of the dermal layers in FIGS. 2C and D
[3]
  Reduction of luminol light emission: 20%
[4]
  Collagen decrease: 16%
[5]
  Elastin contents increased by: 28%

## Leucine-Glycine-Alanine-Glycine-Glycine-Alanine-Glycine [SEQ ID 19]
RFL-6 cells [2]
  Tritiated thymidine incorporation, % CPM above the control: ~18 % CPM above the control

## C[C@]12CC[C@H](O)CC1=C[C@@H](O)[C@@H]1[C@@H]2CC[C@]2(C)C(=O)CC[C@@H]12 [7α-hydroxy-DHEA, 3β,7α-dihydroxy-5-androstene-17-one]
Human keratinocytes [7]
  Cytotoxicity on human keratinocytes: no cytotoxicity was observed
Human fibroblasts; 5 × 10^−6 M
  Number of Fibroblasts: 258,667 ± 3,351
Human fibroblasts; 10^−6 M
  Number of Fibroblasts: 268,000 ± 27,154
Human fibroblasts; 10^−7 M
  Number of Fibroblasts: 230,667 ± 8,511
Human keratinocytes [8]; UVA irradiated 30 minutes, non irradiated 2,529 ± 153, irradiated controls 427,750 ± 137,322
  Chemiluminescence: 44,164 ± 13,303
Human keratinocytes [8]; UVA irradiated, calculated on non-irradiated controls and protection reference
  Effectiveness: 90%

## C[C@]12CC[C@H](O)CC1=C[C@H](O)[C@@H]1[C@@H]2CC[C@]2(C)C(=O)CC[C@@H]12 [7-hydroxy DHEA]
Rat skin
  Outer (keratin) layer and vascularity of the inner layer: no change in the outer (keratin) layer nor increase of vascularity of the inner layer
  Thickness of the dermal layer of skin: thickened to nearly twice that of the untreated controls
[3]
  Reduction of luminol light emission: did not cause any reduction
[4]
  Collagen increased by: 24%
[5]
  Elastin contents increased by: 30%

## Valine-Glycine-Proline-Alanine [SEQ ID 14]
RFL-6 cells [1]
  % Change of Green Fluorescence Intensity: 39%

## Acetyl-GAVVPQ--NH2 (Ac-GAVVPQ-NH2; listed as Homo sapiens) [SEQ ID 44]
RFL-6 cells [2]
  Tritiated thymidine incorporation, % CPM above the control: ~5 % CPM above the control

## Acetyl-VVPQ (Ac-VVPQ; listed as Homo sapiens) [SEQ ID 43]
RFL-6 cells [2]
  Tritiated thymidine incorporation, % CPM above the control: ~1 % CPM above the control

## Alanine-Alanine-Alanine-Glutamine-Alanine (AAAQA; listed as Homo sapiens) [SEQ ID 22]
RFL-6 cells [1]
  % Change of Green Fluorescence Intensity: 20%

## Valine-Valine-Proline-Glutamine-Amide [SEQ ID 42]
RFL-6 cells [2]
  Tritiated thymidine incorporation, % CPM above the control: ~1 % CPM above the control

## Valine-Valine-Proline-Glutamine [SEQ ID 17]
RFL-6 cells [1]
  % Change of Green Fluorescence Intensity: 85%
RFL-6 cells [2]
  Tritiated thymidine incorporation, % CPM above the control: ~28 % CPM above the control
